# Test results reported in patent US9139567B2, “Arylpyrazole ethers as inhibitors of leukotriene A4 hydrolase” (Boehringer Ingelheim International GmbH, priority 2011, dated 2015).
# How the values were obtained:
# [1] = target: T1, human LTA4 hydrolase (Homo sapiens, UniProt P09960); assay: LTA4H enzyme assay (cleavage of Arg-AMC, fluorescence); assay type: biochemical; conditions: LTA4H enzyme 1 nM, Arg-AMC substrate 50 μM, room temperature 1 h
# T1 sequence (P09960 1-611): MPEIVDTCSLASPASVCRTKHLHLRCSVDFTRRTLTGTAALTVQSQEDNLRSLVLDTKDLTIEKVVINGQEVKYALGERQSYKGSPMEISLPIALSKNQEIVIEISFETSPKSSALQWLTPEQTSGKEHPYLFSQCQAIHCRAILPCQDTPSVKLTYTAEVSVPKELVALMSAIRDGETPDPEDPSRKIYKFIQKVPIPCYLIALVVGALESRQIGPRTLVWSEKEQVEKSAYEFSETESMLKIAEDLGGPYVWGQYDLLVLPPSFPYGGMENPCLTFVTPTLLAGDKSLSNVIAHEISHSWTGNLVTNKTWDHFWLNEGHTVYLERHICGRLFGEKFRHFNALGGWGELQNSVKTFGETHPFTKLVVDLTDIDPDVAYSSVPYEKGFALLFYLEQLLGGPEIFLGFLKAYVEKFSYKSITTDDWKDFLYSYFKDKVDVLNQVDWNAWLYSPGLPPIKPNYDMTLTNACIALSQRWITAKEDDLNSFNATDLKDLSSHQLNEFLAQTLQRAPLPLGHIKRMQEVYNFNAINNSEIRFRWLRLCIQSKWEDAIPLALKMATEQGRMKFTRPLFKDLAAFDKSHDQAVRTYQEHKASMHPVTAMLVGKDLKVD
# Description: Compounds are assessed for the ability to interact with human LTA4 hydrolase in an enzymatic assay that measures the ability of the enzyme to cleave the peptide bond of arginyl-aminomethylcoumarin (Arg-AMC). LTA4H Enzyme (1 nM final), Arg-AMC substrate (50 μM final), and compound are combined in a reaction buffer (50 mM Tris-HCl (pH 7.5), 100 mM KCl, 0.5% bovine serum albumin) at room temperature for 1 h. The formation of product is assessed by measuring the fluorescence of aminomethylcoumarin product (excitation wavelength 380 nm/emission wavelength 460 nm).
# [2] = tested on: LTB4 production in human whole blood; assay: LTB4 production inhibition assay in human whole blood (calcimycin-stimulated); assay type: cell-based; conditions: heparinized human whole blood, 15 min 37° C., calcimycin 20 μM 30 min, plasma LTB4 by HTRF
# Description: Compounds of the invention are additionally tested in a human whole blood assay to determine their ability to inhibit the synthesis of LTB4 in a cellular system. Compounds are combined with heparinized human whole blood and incubated for 15 minutes at 37° C. Calcimycin (20 μM final, prepared in phosphate-buffered saline, pH 7.4) is then added and the mixture is incubated for another 30 minutes at 37° C. The samples are centrifuged for 5 min at low speed (1500×g) and the plasma layer is removed. Plasma LTB4 concentrations are then measured using an antibody-based homogenous time-resolved fluorescence method (CisBio, Bedford, Mass.).
IC50 [1] [nM],IC50 [2] [nM],SMILES
0.2,52,"c1cc(-c2ccc(Oc3ccc(OCC4COCCN4)cc3)nc2)[nH]n1 (racemic) [Example 16, 3-[(4-{[5-(1H-pyrazol-5-yl)pyridin-2-yl]oxy}phenoxy)methyl]morpholine]"
0.2,246,"O=C1CC[C@H](COc2ccc(Oc3ccc(-c4ccn[nH]4)cc3)cc2)N1 [Example 1, (5R)-5-({4-[4-(1H-pyrazol-5-yl)phenoxy]phenoxy}methyl)pyrrolidin-2-one]"
0.2,163,"O=C1CC[C@@H](COc2ccc(Oc3ccc(-c4ccn[nH]4)cc3)cc2)N1 [Example 2, (5S)-5-({4-[4-(1H-pyrazol-5-yl)phenoxy]phenoxy}methyl)pyrrolidin-2-one]"
0.2,142,"O=C1CC[C@@H](COc2ccc(Oc3ccc(-c4ccn[nH]4)cn3)cc2)N1 [Example 3, (5S)-5-[(4-{[5-(1H-pyrazol-5-yl)pyridin-2-yl]oxy}phenoxy)methyl]pyrrolidin-2-one]"
3.9,1040,"c1cc(-c2ccc(Oc3ccc(O[C@@H]4CCOC4)cc3)cc2)[nH]n1 [Example 4, 5-(4-{4-[(3R)-tetrahydrofuran-3-yloxy]phenoxy}phenyl)-1H-pyrazole]"
6.8,1350,"c1cc(-c2ccc(Oc3ccc(OCC4CCCO4)cc3)cc2)[nH]n1 (centres unmarked) [Example 5, 5-{4-[4-(tetrahydrofuran-2-ylmethoxy)phenoxy]phenyl}-1H-pyrazole]"
3.5,1080,"O=C1CC[C@H](Oc2ccc(Oc3ccc(-c4ccn[nH]4)cc3)cn2)CN1 [Example 6, (5S)-5-({5-[4-(1H-pyrazol-5-yl)phenoxy]pyridin-2-yl}oxy)piperidin-2-one]"
0.5,280,"CN1CC(COc2ccc(Oc3ccc(-c4ccn[nH]4)cc3)cc2)CC1=O (centres unmarked) [Example 7, 1-methyl-4-({4-[4-(1H-pyrazol-5-yl)phenoxy]phenoxy}methyl)pyrrolidin-2-one]"
0.5,222,"O=C1CCC(Oc2ccc(Oc3ccc(-c4ccn[nH]4)cc3)cc2)CN1 (centres unmarked) [Example 8, 5-{4-[4-(1H-pyrazol-5-yl)phenoxy]phenoxy}piperidin-2-one]"
76.7,≥ 5000,"O=C1NCC[C@@H]1Oc1ccc(Oc2ccc(-c3ccn[nH]3)cc2)cc1 [Example 9, (3S)-3-{4-[4-(1H-pyrazol-5-yl)phenoxy]phenoxy}pyrrolidin-2-one]"
0.2,126,"O=C1NC(COc2ccc(Oc3ccc(-c4ccn[nH]4)cc3)cc2)CO1 (centres unmarked) [Example 10, 4-({4-[4-(1H-pyrazol-5-yl)phenoxy]phenoxy}methyl)-1,3-oxazolidin-2-one]"
1.3,573,"O=C1NCC(COc2ccc(Oc3ccc(-c4ccn[nH]4)cc3)cc2)O1 (centres unmarked) [Example 11, 5-({4-[4-(1H-pyrazol-5-yl)phenoxy]phenoxy}methyl)-1,3-oxazolidin-2-one]"
0.1,104,"O=C1N[C@H](COc2ccc(Oc3ccc(-c4ccn[nH]4)cc3)cc2)CO1 [Example 12, (4R)-4-({4-[4-(1H-pyrazol-5-yl)phenoxy]phenoxy}methyl)-1,3-oxazolidin-2-one]"
0.5,214,"O=C1CC[C@H](Oc2ccc(Oc3ccc(-c4cc[nH]n4)cc3)cc2)CN1 [Example 13, (5S)-5-{4-[4-(1H-pyrazol-3-yl)phenoxy]phenoxy}piperidin-2-one]"
0.3,178,"O=C1CC[C@@H](Oc2ccc(Oc3ccc(-c4cc[nH]n4)cc3)cc2)CN1 [Example 14, (5R)-5-{4-[4-(1H-pyrazol-3-yl)phenoxy]phenoxy}piperidin-2-one]"
0.3,150,"O=C1N[C@@H](COc2ccc(Oc3ccc(-c4ccn[nH]4)cc3)cc2)CO1 [Example 15, (4S)-4-({4-[4-(1H-pyrazol-5-yl)phenoxy]phenoxy}methyl)-1,3-oxazolidin-2-one]"
1.5,425,"O=C1CC[C@@H](Oc2ccc(Oc3ccc(-c4ccn[nH]4)cn3)cc2)CN1 [Example 17, (5R)-5-(4-{[5-(1H-pyrazol-5-yl)pyridin-2-yl]oxy}phenoxy)piperidin-2-one]"

IC50 [1] [nM],IC50 [2] [nM],SMILES
0.8,581,"O=C1CC[C@@H](Oc2ccc(Cc3ccc(-c4ccn[nH]4)cc3)cc2)CN1 [Example 18, (5R)-5-{4-[4-(1H-pyrazol-5-yl)benzyl]phenoxy}piperidin-2-one]"
1.9,554,"O=C1CC[C@@H](Oc2ccc(Oc3ccc(-c4ccn[nH]4)cc3)cn2)CN1 [Example 19, (5R)-5-({5-[4-(1H-pyrazol-5-yl)phenoxy]pyridin-2-yl}oxy)piperidin-2-one]"
0.6,229,"O=C1N[C@@H](COc2ccc(Cc3ccc(-c4ccn[nH]4)cc3)cc2)CO1 [Example 20, (4S)-4-({4-[4-(1H-pyrazol-5-yl)benzyl]phenoxy}methyl)-1,3-oxazolidin-2-one]"
0.7,813,"O=C1CCCN1CCOc1ccc(Oc2ccc(-c3ccn[nH]3)cc2)cc1 [Example 21, 1-(2-{4-[4-(lH-pyrazol-5-yl)phenoxy]phenoxy}ethyl)pyrrolidin-2-one]"
0.2,179,"c1cc(-c2ccc(Oc3ccc(OCCN4CCOCC4)cc3)cc2)[nH]n1 [Example 22, 4-(2-{4-[4-(1H-pyrazol-5-yl)phenoxy]phenoxy}ethyl)morpholine]"
0.7,529,"O=C1CCCN1CCCOc1ccc(Oc2ccc(-c3ccn[nH]3)cc2)cc1 [Example 23, 1-(3-{4-[4-(1H-pyrazol-5-yl)phenoxy]phenoxy}propyl)pyrrolidin-2-one]"
0.2,123,"O=C1N[C@H](COc2ccc(Oc3ccc(-c4ccn[nH]4)cn3)cc2)CO1 [Example 24, (4R)-4-[(4-{[5-(1H-pyrazol-5-yl)pyridin-2-yl]oxy}phenoxy)methyl]-1,3-oxazolidin-2-one]"
0.5,123,"c1cc(-c2ccc(Cc3ccc(OCCN4CCOCC4)cc3)cc2)[nH]n1 [Example 25, 4-(2-{4-[4-(1H-pyrazol-5-yl)benzyl]phenoxy}ethyl)morpholine]"
1.2,2110,"Cn1ccnc1COc1ccc(Oc2ccc(-c3ccn[nH]3)cc2)cc1 [Example 26, 5-(4-{4-[(1-methyl-1H-imidazol-2-yl)methoxy]phenoxy}phenyl)-1H-pyrazole]"
2.2,1840,"c1cc(-c2ccc(Oc3ccc(OCc4cnc[nH]4)cc3)cc2)[nH]n1 [Example 27, 5-{4-[4-(1H-imidazol-5-ylmethoxy)phenoxy]phenyl}-1H-pyrazole]"
1.4,≥ 5000,"c1ccc2[nH]c(COc3ccc(Oc4ccc(-c5ccn[nH]5)cc4)cc3)nc2c1 [Example 28, 2-({4-[4-(1H-pyrazol-5-yl)phenoxy]phenoxy}methyl)-1H-benzimidazole]"
4.9,2280,"c1cncc(CCOc2ccc(Oc3ccc(-c4ccn[nH]4)cc3)cc2)c1 [Example 29, 3-(2-{4-[4-(1H-pyrazol-5-yl)phenoxy]phenoxy}ethyl)pyridine]"
65.6,≥ 5000,"c1coc(COc2ccc(Oc3ccc(-c4ccn[nH]4)cc3)cc2)c1 [Example 30, 5-{4-[4-(2-furylmethoxy)phenoxy]phenyl}-1H-pyrazole]"
900,≥ 5000,"CC(Cc1ccccc1)Oc1ccc(Oc2ccc(-c3ccn[nH]3)cc2)cc1 (centres unmarked) [Example 31, 5-{4-[4-(1-methyl-2-phenylethoxy)phenoxy]phenyl}-1H-pyrazole]"
360,≥ 5000,"CC(COc1ccc(Oc2ccc(-c3ccn[nH]3)cc2)cc1)c1ccccc1 (centres unmarked) [Example 32, 5-{4-[4-(2-phenylpropoxy)phenoxy]phenyl}-1H-pyrazole]"
5.2,3360,"c1ccc(CCOc2ccc(Oc3ccc(-c4ccn[nH]4)cc3)cc2)nc1 [Example 33, 2-(2-{4-[4-(1H-pyrazol-5-yl)phenoxy]phenoxy}ethyl)pyridine]"
1.5,2540,"c1cncc(COc2ccc(Oc3ccc(-c4ccn[nH]4)cc3)cc2)c1 [Example 34, 3-({4-[4-(1H-pyrazol-5-yl)phenoxy]phenoxy}methyl)pyridine]"
